Results as given in patent publication US9249128B2 (priority 2010, dated 2016).

Key:
[1] = molecular target: T1, KIAA1363 (Homo sapiens, UniProt Q6PIU2); test: Inhibition of FP-rhodamine labeling of KIAA1363 by JW551 (FIG. 17); assay type: biochemical; conditions: selective over other serine hydrolase enzymes
T1 sequence (Q6PIU2 1-408): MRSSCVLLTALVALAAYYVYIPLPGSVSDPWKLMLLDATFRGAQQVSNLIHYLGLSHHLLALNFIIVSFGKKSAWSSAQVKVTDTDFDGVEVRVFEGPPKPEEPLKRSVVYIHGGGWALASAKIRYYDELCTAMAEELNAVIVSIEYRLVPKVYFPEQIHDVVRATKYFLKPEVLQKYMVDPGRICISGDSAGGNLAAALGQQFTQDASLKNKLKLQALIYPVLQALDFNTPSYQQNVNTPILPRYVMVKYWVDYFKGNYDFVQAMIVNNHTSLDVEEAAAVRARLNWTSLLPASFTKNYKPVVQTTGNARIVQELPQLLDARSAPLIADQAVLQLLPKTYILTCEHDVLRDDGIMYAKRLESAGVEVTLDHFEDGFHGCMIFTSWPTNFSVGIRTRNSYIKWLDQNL

[2] = molecular target: T1, KIAA1363; test: 2-acetyl MAGE hydrolytic activity assay in cancer cells treated in situ; assay type: cell-based; design: PC3 cancer cells, which have high endogenous KIAA1363 levels; endogenous in cells; host or cells: PC3 (2-acetyl MAGE assay also DU145 and SKOV3)
Procedure: Cells were pretreated with KIAA1363 inhibitors in situ (for 4 hr in serum-free F-12K media before harvesting cells by scraping) or in vitro (for 30 min at 37° C. in PBS) before addition of 2-acetyl MAGE (100 μM) to cell lysates at room temperature for 30 min in a volume of 200 μL. Reactions were quenched with 600 μL 2:1 chloroform:methanol and 10 nmol of C12:0 MAGE internal standard was added. The organic layer was extracted and 30 μL injected into an Agilent 1100-MSD LC-MS. LC-MS settings were as previously described (Chiang et al., 2006). Product levels (C16:0 MAGE) were quantified in relation to the internal standard. Specific activity was determined during the linear phase of enzymatic reactions (i.e., less than 20% substrate utilized).
Cell lysates (20 μg) in Tris buffer were then incubated with lipid (100 mM, e.g., 2-acetyl MAGE for KIAA1363 activity) at room temperature for 30 min in a volume of 200 ml. Reactions were quenched with 600 ml 2:1 chloroform:methanol and 10 nmol of C12:0 MAGE internal standard was added. […] Product levels (C16:0 MAGE for KIAA1363 activity) were quantified in relation to internal standard levels and standard curves generated between varying lipid concentration versus constant internal standard levels. Specific activity was determined during the linear phase of enzymatic reactions (i.e., less than 20% substrate utilized)

[3] = molecular target: T1, KIAA1363; test: Gel-based competitive ABPP of living PC3 cells, in situ treatment; assay type: cell-based; design: PC3 cancer cells, which have high endogenous KIAA1363 levels; endogenous in cells; host or cells: PC3
Procedure: Inhibitors were dissolved in DMSO and diluted into media or buffer prior to cell or proteome treatment, respectively. For in vitro treatment, final DMSO concentration was 4%. For in situ treatments of cells for ABPP, lipid measurements, migration, cell-survival, and invasion assays, 2×10^6 cells were seeded in 6 cm dishes (˜100% confluency) 24 h prior to inhibitor pre-treatment (in DMSO at 0.1% final concentration) in serum-free media (3 mL) for the designated time before harvesting cells for ABPP or lipid measurements or before the initiation of migration, cell-survival, and invasion assays.
For ABPP experiments, cell lysate and tissue proteomes were treated with 1 μM FP-rhodamine for 30 min at room temperature (50 μL total reaction volume) as described previously (Nomura et al., 2010). Reactions were quenched with one volume of standard 4×SDS/PAGE loading buffer (reducing), separated by SDS/PAGE (10% acrylamide), and visualized in-gel with a Hitachi FMBio IIe flatbed fluorescence scanner (MiraiBio). Inhibitors were preincubated prior (30 min or 4 h at 37° C. in vitro or in situ, respectively) to the addition of FP-rhodamine.
JW576 was dissolved in DMSO and diluted into media or buffer prior to cell or proteome treatment, respectively. For in vitro treatment, final DMSO concentration was 4%. For in situ treatments of cells for ABPP, 2×10^6 cells were seeded in 6 cm dishes (100% confluency) 24 hr prior to JW576 pretreatment with or without JW480 (in DMSO at 0.1% final concentration) in serum-free media (3 ml) for the designated time before harvesting cells for ABPP.
(§1) For ABPP experiments, cell lysate and tissue proteomes were treated with 1 μM FP-rhodamine for 30 min at room temperature ([…]). Reactions were quenched with one volume of standard 4×SDS/PAGE loading buffer (reducing), separated by SDS/PAGE (10% acrylamide), and visualized in-gel with a Hitachi FMBio IIe flatbed fluorescence scanner (MiraiBio). For experiments involving a preincubation with JW576 in the presence or absence of the non-fluorescent competitor JW480, the reactions were prepared without FP-rhodamine. JW576 were added at the indicated concentration and incubated for the indicated time at 37° C. FP-rhodamine was then added and the reaction was carried out exactly as described above.

[4] = molecular target: T2, KIAA1363 (Mus musculus, UniProt Q8BLF1); test: In vivo labeling of KIAA1363 by JW576 in mouse heart (gel-based ABPP)
T2 construct: ABPP analysis of KIAA1363 activity in mouse brain membrane proteome; from tissue; host or cells: mouse brain (membrane fraction)
T2 sequence (Q8BLF1 1-408): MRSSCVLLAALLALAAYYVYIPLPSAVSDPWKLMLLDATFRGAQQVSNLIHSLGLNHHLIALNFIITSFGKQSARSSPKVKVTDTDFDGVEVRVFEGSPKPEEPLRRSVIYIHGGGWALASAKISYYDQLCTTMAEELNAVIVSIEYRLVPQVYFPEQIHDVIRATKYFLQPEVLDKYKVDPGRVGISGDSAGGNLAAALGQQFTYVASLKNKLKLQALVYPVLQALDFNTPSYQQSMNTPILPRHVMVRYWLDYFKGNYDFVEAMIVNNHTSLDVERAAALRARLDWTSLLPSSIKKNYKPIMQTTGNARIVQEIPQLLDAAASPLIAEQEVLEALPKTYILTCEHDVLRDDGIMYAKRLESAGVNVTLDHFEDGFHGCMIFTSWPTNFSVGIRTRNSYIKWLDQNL
Procedure: as §1
Tissues were dounce-homogenized in PBS, pH 7.5, followed by a low-speed spin (1,400 g, 5 min) to remove debris. The supernatant was then subjected to centrifugation (64,000 g, 45 min) to provide the cytosolic fraction in the supernatant and the membrane fraction as a pellet. The pellet was washed and resuspended in PBS buffer by sonication. Total protein concentration in each fraction was determined using a protein assay kit (Bio-Rad). Samples were stored at −80° C. until use.
JW576 was prepared as a homogenoeus PEG solution by vortexing, sonicating, and gently heating neat compound directly into PEG300 (Fluka) (4 mg ml^−1 final concentration. Male C57BI/6J (<6 months old, 20-28 g) and Male KIAA1363-KO mice were treated with JW576 or a PEG vehicle by intraperitoneal injection. After the indicated amount of time, mice were anesthetized with isoflurane and killed by decapitation. Tissues were removed, flash frozen in liquid N2 and stored at −80° C. prior to processing for ABPP gel analysis as indicated above. Animal experiments were conducted in accordance with the guidelines of the institutional Animal Care and Use Committee of The Scripps Research Institute.

CC(C)c1ccccc1OC(=O)NCCOc1ccc2c(C(F)(F)F)cc(=O)oc2c1 [JW551, 2-isopropylphenyl (2-((2-oxo-4-(trifluoromethyl)-2H-chromen-7-yl)oxy)ethyl)carbamate]
IC50 for inhibition of FP-rhodamine labeling of KIAA1363 [1]: low micromolar

CC1=CC(C)=[N+]2C1=Cc1ccc(CCC(=O)NCCNC(=O)Oc3ccccc3C(C)C)n1[B-]2(F)F [JW576, 5,5-difluoro-7-(3-((2-(((2-isopropylphenoxy)carbonyl)amino)ethyl)amino)-3-oxopropyl)-1,3-dimethyl-5H-dipyrrolo[1,2-c:2′,1′-f][1,3,2]diazaborinin-4-ium-5-uide]
IC50 [2]: 150 to 170 nM | IC50 [3]: 340 ± 150 nM | Time to near-complete target modification ([3]; JW576 1 μM, living PC3 cells): within an hour | Concentration at which other JW576-protein adducts were observed (trace levels) ([3]; PC3 cells in situ, BODIPY fluorescence scan): ≥ 5 µM | Labeling of KIAA1363 in heart ([4]; C57BI/6J mice, 5-40 mg/kg, i.p., 4 hr): significant labeling | Time to near-maximal in vivo labeling signals ([4]; JW576 10 mg/kg, post-dosing): ≤ 30 min | KIAA1363 activity in heart by competitive ABPP with FP-Rh ([4]; WT mice, JW576 10 mg/kg, 1 hr): substantial reductions | Selectivity for KIAA1363 in vivo (heart proteome) ([4]; additional 70 kDa protein, likely ES1): only a single, faint additional probe target
